Reference: article PMC9655037, “Alternation of Organ-Specific Exposure in LPS-Induced Pneumonia Mice after the Inhalation of Tetrandrine Is Governed by Metabolizing Enzyme Suppression and Lysosomal Trapping” (International Journal of Molecular Sciences, 2022)

Test: Tissue distribution of TET after a single i.t. administration in normal and LPS-treated mice
Conditions: BALB/c, mouse, 15 mg/kg, 15 mg/kg i.t.; for Kp: other: intratracheal (i.t.), Kp (AUC in tissue divided by AUC in blood); for AUC(0-inf) / Cmax / MRT / Tmax / half-life / AUC(0-t): inhaled or intranasal
Method: The different tissue distribution characteristics of TET in normal and pneumonia model mice via i.t. delivery were investigated. Thirty BALB/c mice were randomly divided into ten groups (n = 3 for each group). Five groups of mice were intratracheally injected with 15 mg/kg TET (dissolved in 22.5 mg/mL aspartic acid solution) as control groups, and the other five groups received i.t. administration of 15 mg/kg TET 6 h after i.t. injection of 50 μL LPS (5 mg/mL) as model groups. One control group and one model group were sacrificed simultaneously at the set time points of 2, 4, 8, 24, and 144 h after the administration of TET. After a cardiac puncture to obtain blood samples, tissue samples including heart, liver, spleen, lung, kidney, stomach, intestine, and brain were immediately harvested and all the tissues were thoroughly rinsed in ice physiological saline. All the tissue samples were weighed and stored with blood samples at −40 °C for LC-MS/MS analysis.
Pharmacokinetic parameters including t1/2, AUC(0-t), AUC(0-∞), and MRT were calculated using WinNonlin 7.0 (Pharsight, CA) by the non-compartmental model. Initial plasma concentration post i.v. (C0-i.v.) was extrapolated from the first three points of the logarithmic plasma concentration. The area under the blood concentration–time curve from t = 0 to infinity (AUCinf) was estimated using the linear trapezoidal rule. Blood clearance (CL) was calculated as the i.v. dose divided by AUCinf. Apparent steady-state distribution volume (Vss) was determined by the clearance multiplied by mean residence time. The distribution volume in the elimination phase (Vz) was determined by the clearance divided by the first-order rate constant of the terminal elimination phase (λz). The tissue partition ratio (Kp) of each tissue was calculated as Equation (1). (1) Kp=AUC(0−∞,tissue)/AUC(0−∞,plasma)

COc1ccc2cc1Oc1ccc(cc1)C[C@H]1c3cc(c(OC)cc3CCN1C)Oc1c(OC)c(OC)cc3c1[C@H](C2)N(C)CC3 [TET, Tetrandrine]
Kp (adipose / blood, LPS-treated mice, adipose): 2.6
Kp (adipose / blood, normal mice, adipose): 2.4
AUC(0-inf) (adipose, LPS-treated mice): 816 ± 429 µg·h/mL
AUC(0-inf) (adipose, normal mice): 501 ± 88.3 µg·h/mL
Cmax (adipose, LPS-treated mice): 5920 ± 1410 ng/mL
Cmax (adipose, normal mice): 7380 ± 1790 ng/mL
MRT (adipose, LPS-treated mice): 102 ± 57.9 h
MRT (adipose, normal mice): 67.7 ± 37.1 h
Tmax (adipose, LPS-treated mice): 18.7 ± 9.24 h
Tmax (adipose, normal mice): 5.33 ± 2.31 h
half-life (adipose, t1/2, LPS-treated mice): 75.2 ± 35.2 h
half-life (adipose, t1/2, normal mice): 54 ± 21.5 h
AUC(0-inf) (blood, LPS-treated mice): 326 ± 12.9 µg·h/mL
AUC(0-inf) (blood, normal mice): 249 ± 16.4 µg·h/mL
Cmax (blood, LPS-treated mice): 1940 ± 225 ng/mL
Cmax (blood, normal mice): 2670 ± 50 ng/mL
MRT (blood, LPS-treated mice): 133 ± 26.1 h
MRT (blood, normal mice): 111 ± 23.1 h
Tmax (blood, LPS-treated mice): 24 h
Tmax (blood, normal mice): 3.33 ± 1.15 h
half-life (blood, t1/2, LPS-treated mice): 95.5 ± 17.6 h
half-life (blood, t1/2, normal mice): 83.2 ± 15.4 h
Kp (blood, LPS-treated mice, blood): 1
Kp (blood, normal mice, blood): 1
Kp (brain / blood, LPS-treated mice, brain): 0.6
Kp (brain / blood, normal mice, brain): 1
AUC(0-inf) (brain, LPS-treated mice): 179 ± 38.4 µg·h/mL
AUC(0-inf) (brain, normal mice): 190 ± 51.4 µg·h/mL
Cmax (brain, LPS-treated mice): 6430 ± 3790 ng/mL
Cmax (brain, normal mice): 10400 ± 9530 ng/mL
MRT (brain, LPS-treated mice): 112 ± 35.4 h
MRT (brain, normal mice): 56.8 ± 26.5 h
Tmax (brain, LPS-treated mice): 5.33 ± 2.31 h
Tmax (brain, normal mice): 2 h
half-life (brain, t1/2, LPS-treated mice): 92.6 ± 27.2 h
half-life (brain, t1/2, normal mice): 51.6 ± 17.2 h
Kp (heart / blood, LPS-treated mice, heart): 4.3
Kp (heart / blood, normal mice, heart): 5.1
AUC(0-t) (heart, LPS-treated mice): 940 ± 381 µg·h/mL
AUC(0-t) (heart, normal mice): 880 ± 22.2 µg·h/mL
AUC(0-inf) (heart, LPS-treated mice): 4090 ± 3400 µg·h/mL
AUC(0-inf) (heart, normal mice): 1410 ± 21.5 µg·h/mL
Cmax (heart, LPS-treated mice): 10800 ± 4010 ng/mL
Cmax (heart, normal mice): 14200 ± 3160 ng/mL
MRT (heart, LPS-treated mice): 643 ± 376 h
MRT (heart, normal mice): 137 ± 0.09 h
Tmax (heart, LPS-treated mice): 4 h
Tmax (heart, normal mice): 2.67 ± 1.15 h
half-life (heart, t1/2, LPS-treated mice): 449 ± 259 h
half-life (heart, t1/2, normal mice): 96.8 ± 6.46 h
AUC(0-t) (in vivo, LPS-treated mice, adipose): 566 ± 163 µg·h/mL
AUC(0-t) (in vivo, LPS-treated mice, blood): 219 ± 17.7 µg·h/mL
AUC(0-t) (in vivo, LPS-treated mice, brain): 129 ± 46.2 µg·h/mL
AUC(0-t) (in vivo, LPS-treated mice, kidney): 7940 ± 1170 µg·h/mL
AUC(0-t) (in vivo, LPS-treated mice, liver): 5890 ± 178 µg·h/mL
AUC(0-t) (in vivo, LPS-treated mice, muscle): 483 ± 89.5 µg·h/mL
AUC(0-t) (in vivo, LPS-treated mice, spleen): 9420 ± 942 µg·h/mL
AUC(0-t) (in vivo, normal mice, adipose): 421 ± 94.4 µg·h/mL
AUC(0-t) (in vivo, normal mice, blood): 175 ± 12.3 µg·h/mL
AUC(0-t) (in vivo, normal mice, brain): 168 ± 60.6 µg·h/mL
AUC(0-t) (in vivo, normal mice, intestine): 1460 ± 134 µg·h/mL
AUC(0-t) (in vivo, normal mice, kidney): 6510 ± 691 µg·h/mL
AUC(0-t) (in vivo, normal mice, liver): 4860 ± 334 µg·h/mL
AUC(0-t) (in vivo, normal mice, lung): 4310 ± 1000 µg·h/mL
AUC(0-t) (in vivo, normal mice, muscle): 359 ± 79.8 µg·h/mL
AUC(0-t) (in vivo, normal mice, spleen): 7940 ± 665 µg·h/mL
AUC(0-t) (in vivo, normal mice, stomach): 929 ± 163 µg·h/mL
Kp (intestine / blood, normal mice, intestine): 8.3
AUC(0-t) (intestine, LPS-treated mice): 2390 ± 196 µg·h/mL
AUC(0-inf) (intestine, LPS-treated mice): 2590 ± 271 µg·h/mL
AUC(0-inf) (intestine, normal mice): 1630 ± 130 µg·h/mL
Cmax (intestine, LPS-treated mice): 76500 ± 10900 ng/mL
Cmax (intestine, normal mice): 46700 ± 25900 ng/mL
MRT (intestine, LPS-treated mice): 42.4 ± 6.38 h
MRT (intestine, normal mice): 50.5 ± 2.31 h
Tmax (intestine, LPS-treated mice): 2 h
Tmax (intestine, normal mice): 4 h
half-life (intestine, t1/2, LPS-treated mice): 41.7 ± 4.93 h
half-life (intestine, t1/2, normal mice): 44.7 ± 1.94 h
Kp (intestine, LPS-treated mice, intestine): 11 ± 1.35
AUC(0-inf) (kidney, LPS-treated mice): 11000 µg·h/mL
